The values that follow come from ChEMBL document CHEMBL4028852, “Design of a Chemical Probe for the Bromodomain and Plant Homeodomain Finger-Containing (BRPF) Family of Proteins” (J Med Chem, 2017).

SMILES strings stand for the structures.

The target of series [1] is Bromodomain-containing protein 4 (Homo sapiens, UniProt O60885). Description: Inhibition of human BRD4 bromodomain 1 (unknown origin) using [H-YSGRGKacGGKacGLGKacGGAKacRHRK(Biotin)-OH peptide as substrate after 30 mins by alphaScreen assay. In general terms: Alpha assays give light when donor and acceptor beads are brought close together.
The nature of series [2]: Inhibition of cell proliferation of human NCI60 cells at 10 uM after 48 hrs by SRB assay. In kind it is functional. The settings on record: NCI60, 48 h. For orientation: The SRB assay estimates cell density from bound dye.
A short description of series [3]: Inhibition of cell proliferation of human RERF-LC-Sq1 cells after 72 hrs by MTS assay. In kind it is functional. Particulars: RERF-LC-Sq1, 72 h; call rule not given here.
Series [4] can be described thus: Inhibition of CYP450 (unknown origin). In kind it is ADME. The settings on record: human.
Series [5] is described as follows: Oral bioavailability in CD1 mouse at 3 mg/kg by UPLC-MS/MS analysis. The settings on record: in vivo. Format: ADME, organism-based.
A further series has as its target hERG (Homo sapiens, UniProt Q12809). Briefly: Inhibition of human ERG at 30 uM.
Series [6] is described as follows: Apparent permeability across basolateral to apical side in human Caco2 cells at 10 uM after 2 hrs by LC-MS/MS analysis. In kind it is ADME, cell-based. Particulars: Caco-2. (Caco-2 monolayers are a common model of the intestinal barrier.)
A further series has as its system Liver. Briefly: Metabolic stability in human liver microsomes by UPLC-MS/MS analysis. Format: ADME, microsome.
For the next series, the target named is T1, Kv4.3/KChIP2 (Homo sapiens, UniProt Q9NS61+Q9UK17).
T1 sequence (Q9UK17 whole entry): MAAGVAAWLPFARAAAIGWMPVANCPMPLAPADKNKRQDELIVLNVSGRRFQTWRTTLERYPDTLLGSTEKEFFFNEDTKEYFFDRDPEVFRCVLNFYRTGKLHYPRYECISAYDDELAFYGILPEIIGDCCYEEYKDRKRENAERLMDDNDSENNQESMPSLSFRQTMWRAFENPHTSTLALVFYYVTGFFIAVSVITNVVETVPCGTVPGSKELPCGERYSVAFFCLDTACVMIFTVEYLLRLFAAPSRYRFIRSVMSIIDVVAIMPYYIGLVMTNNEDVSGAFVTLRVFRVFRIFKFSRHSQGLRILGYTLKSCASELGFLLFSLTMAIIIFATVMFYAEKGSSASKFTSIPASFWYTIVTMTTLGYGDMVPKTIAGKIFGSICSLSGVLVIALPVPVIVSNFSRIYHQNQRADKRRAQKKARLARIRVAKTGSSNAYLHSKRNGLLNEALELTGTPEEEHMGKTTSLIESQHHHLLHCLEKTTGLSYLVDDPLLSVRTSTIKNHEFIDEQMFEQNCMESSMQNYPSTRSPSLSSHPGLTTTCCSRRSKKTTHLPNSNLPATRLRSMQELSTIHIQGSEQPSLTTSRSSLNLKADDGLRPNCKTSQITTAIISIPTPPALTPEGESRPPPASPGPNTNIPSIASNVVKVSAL
T1 sequence (Q9NS61 whole entry): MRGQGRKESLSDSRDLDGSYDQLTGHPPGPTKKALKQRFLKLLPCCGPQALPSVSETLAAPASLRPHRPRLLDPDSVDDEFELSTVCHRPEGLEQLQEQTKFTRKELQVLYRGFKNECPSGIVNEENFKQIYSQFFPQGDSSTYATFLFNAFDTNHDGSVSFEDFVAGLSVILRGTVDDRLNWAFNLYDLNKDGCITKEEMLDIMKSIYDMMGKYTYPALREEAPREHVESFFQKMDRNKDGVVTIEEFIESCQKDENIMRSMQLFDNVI
Description: Inhibition of Kv4.3/KChIP2 (unknown origin) at 30 uM. Format: protein-complex assay.

The target in series [7] is T2, Transcription intermediary factor 1-alpha (Homo sapiens, UniProt O15164).
T2 sequence (O15164 whole entry): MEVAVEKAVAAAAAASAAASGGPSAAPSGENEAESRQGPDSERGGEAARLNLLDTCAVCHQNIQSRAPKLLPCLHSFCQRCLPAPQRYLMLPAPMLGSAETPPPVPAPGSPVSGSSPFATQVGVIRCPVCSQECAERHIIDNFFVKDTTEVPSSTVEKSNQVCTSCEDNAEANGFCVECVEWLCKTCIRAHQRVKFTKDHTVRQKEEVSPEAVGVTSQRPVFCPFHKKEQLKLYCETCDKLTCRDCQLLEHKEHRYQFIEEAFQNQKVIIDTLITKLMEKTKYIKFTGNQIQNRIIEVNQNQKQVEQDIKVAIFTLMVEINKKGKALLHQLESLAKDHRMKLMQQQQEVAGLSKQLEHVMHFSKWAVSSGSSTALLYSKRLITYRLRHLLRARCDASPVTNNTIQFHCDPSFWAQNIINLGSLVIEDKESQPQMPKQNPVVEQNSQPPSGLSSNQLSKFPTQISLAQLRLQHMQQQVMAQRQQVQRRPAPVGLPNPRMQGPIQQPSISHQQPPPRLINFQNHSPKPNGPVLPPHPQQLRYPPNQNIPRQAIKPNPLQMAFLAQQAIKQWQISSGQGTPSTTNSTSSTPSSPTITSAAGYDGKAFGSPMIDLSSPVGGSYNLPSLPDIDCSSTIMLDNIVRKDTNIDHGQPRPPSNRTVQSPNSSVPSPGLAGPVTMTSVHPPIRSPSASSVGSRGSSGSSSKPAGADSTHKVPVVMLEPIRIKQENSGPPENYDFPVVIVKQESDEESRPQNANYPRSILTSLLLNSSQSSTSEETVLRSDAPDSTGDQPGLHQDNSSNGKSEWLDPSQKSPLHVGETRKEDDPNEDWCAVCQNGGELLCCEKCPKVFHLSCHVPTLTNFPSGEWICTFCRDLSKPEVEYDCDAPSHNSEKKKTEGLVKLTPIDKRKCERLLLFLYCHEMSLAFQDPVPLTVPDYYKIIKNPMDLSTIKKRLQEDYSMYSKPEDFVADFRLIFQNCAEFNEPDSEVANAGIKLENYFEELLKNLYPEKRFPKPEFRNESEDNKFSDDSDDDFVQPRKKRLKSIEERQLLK
Description: Inhibition of TRIM24 (unknown origin) using tetra-acetylated histone 4/ mono-acetylated K14 histone 3 as substrate after 30 mins by alphascreen assay.

Series [8] can be described thus: Elimination half life in CD1 mouse at 1 mg/kg, iv by UPLC-MS/MS analysis. Format: ADME, organism-based. Particulars: in vivo, read-out: beta t1/2 (converted).
The nature of series [9]: Fraction of drug absorbed in CD1 mouse at 3 mg/kg, po by UPLC-MS/MS analysis. Particulars: in vivo, read-out: Fabs. Format: ADME, organism-based.

Sequence of hERG (Q12809 whole entry): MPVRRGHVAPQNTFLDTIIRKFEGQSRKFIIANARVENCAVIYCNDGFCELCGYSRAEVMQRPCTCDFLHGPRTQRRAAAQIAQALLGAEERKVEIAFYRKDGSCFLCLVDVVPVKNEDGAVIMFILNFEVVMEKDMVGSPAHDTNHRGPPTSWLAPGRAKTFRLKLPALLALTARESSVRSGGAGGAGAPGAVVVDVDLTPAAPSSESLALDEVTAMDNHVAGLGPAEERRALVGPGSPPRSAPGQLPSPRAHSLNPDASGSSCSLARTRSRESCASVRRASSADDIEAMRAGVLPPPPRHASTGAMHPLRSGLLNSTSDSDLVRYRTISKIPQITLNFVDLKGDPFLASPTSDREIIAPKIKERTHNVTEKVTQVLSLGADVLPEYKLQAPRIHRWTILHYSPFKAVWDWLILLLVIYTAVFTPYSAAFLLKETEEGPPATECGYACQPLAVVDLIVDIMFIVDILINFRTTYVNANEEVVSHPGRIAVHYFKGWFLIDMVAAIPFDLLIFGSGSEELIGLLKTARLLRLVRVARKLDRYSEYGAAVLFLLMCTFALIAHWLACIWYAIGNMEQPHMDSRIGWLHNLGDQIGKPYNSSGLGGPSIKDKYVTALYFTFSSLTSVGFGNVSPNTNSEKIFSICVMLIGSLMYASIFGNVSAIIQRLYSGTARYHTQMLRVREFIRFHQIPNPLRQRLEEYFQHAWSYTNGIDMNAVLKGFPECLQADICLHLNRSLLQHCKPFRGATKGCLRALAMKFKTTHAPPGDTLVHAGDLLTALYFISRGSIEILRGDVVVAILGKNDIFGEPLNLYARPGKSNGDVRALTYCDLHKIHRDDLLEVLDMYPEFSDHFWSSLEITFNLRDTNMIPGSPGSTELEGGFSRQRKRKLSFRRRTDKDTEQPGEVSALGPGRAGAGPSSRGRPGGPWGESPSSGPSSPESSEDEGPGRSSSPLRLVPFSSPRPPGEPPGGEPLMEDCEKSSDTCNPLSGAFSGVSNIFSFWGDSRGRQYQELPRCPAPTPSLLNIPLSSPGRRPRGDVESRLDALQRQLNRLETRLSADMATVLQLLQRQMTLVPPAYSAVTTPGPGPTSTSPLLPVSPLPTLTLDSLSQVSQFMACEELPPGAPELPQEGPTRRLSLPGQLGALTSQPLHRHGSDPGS

As a reminder, the IC50 is the point on the concentration scale where inhibition reaches its midpoint. A low value points to greater potency in that assay. What is called inhibition is the percentage by which the read-out fell short of the control. As usually defined, the GI50 is the concentration at which growth is held to half of that of the control. Higher therefore signals lower sensitivity of the cells. In general, bioavailability refers to dose-corrected exposure relative to a reference, in per cent. Read a low bioavailability as poor availability. Usually Papp B→A stands for the apparent permeability from the basolateral to the apical side of a cell layer. For `COc1cc(C#N)ccc1S(=O)(=O)Nc1ccc2c(c1)cc(C)c(=O)n2C`, the IC50 in series [1] and in [7] was greater than 10 µM each time. Also, in series [2], the inhibition at 10 µM was less than 25%. In series [3], this compound had a GI50 of 16.6 µM. In addition, in series [4], the “inhibition (INH)” value is listed as “Not Active”. The bioavailability in series [5] was 29%. In addition, the inhibition at 30 µM against hERG and on Kv4.3/KChIP2 was less than 40% in each case. Further, the Papp B→A at 2 h, 10 µM in series [6] amounted to 52 ×10⁻⁶ cm/s. The Stability entry in the series with Liver is on record as “Stable”. Besides, the half-life in series [8] is 1.2 h. For the same compound, the Fa in series [9] came to 35%.
